# Data published in PMC6720825, “Thiol-ene "Click" Synthesis and Pharmacological Evaluation of C-Glycoside sp^2-Iminosugar Glycolipids” (Molecules, 2019).
# Entries after “also recorded” stand apart in the source; their conditions may differ.
# Assays:
# MDA-MB-231, breast = tested on: MDA-MB-231, breast; design: method as in PMID 24124558, PMID 28145580; details: Figure 1; cited from earlier work
# MCF-7, breast = tested on: MCF-7, breast; design: method as in PMID 24124558, PMID 28145580; details: Figure 1; cited from earlier work
# [1] = tested on: intracellular amastigotes of Leishmania donovani (amastigotes HU3); design: method as in doi:10.1039/C5RA02627J; details: cited from earlier work; for EC50: intracellular amastigotes of Leishmania donovani
# α-Glcase (Yeast Maltase) = biological target: T1, α-Glcase (Yeast Maltase) (Saccharomyces cerevisiae, UniProt P53341); assay: Glycosidase inhibition (Ki), yeast maltase α-glucosidase; type: biochemical; details: for Ki, α-Glcase (Yeast Maltase): mean ± SD, three independent determinations, competitive inhibition
# T1 construct: purchased
# Excerpt: (§1) The inhibitory properties of the new sp^2-IGLs 1–12 and the α-C-allyl ONJ and OGJ glycosides 15, and 24 were examined against a panel of commercial glycosidases that included the α-glucosidases maltase (Saccharomyces cerevisiae) and amyloglucosidase (Aspergillus niger), the β-glucosidases from almonds and bovine liver, α-galactosidase from green coffee beans, β-galactosidase from Escherichia coli, α-mannosidase from Jack beans, and β-mannosidase from Helix pomatia. The corresponding inhibition constant (Ki) values are collected in Table 1.
# (§2) Inhibition constant (Ki) values were determined by spectrophotometrically measuring the residual hydrolytic activities of the glycosidases against the respective o- (for β-galactosidase from E. coli) or p-nitrophenyl α- or β-D-glycopyranoside (for other glycosidases) in the presence of the iminosugars. Each assay was performed in phosphate buffer or phosphate-citrate buffer (for α- or β-mannosidase and amyloglucosidase) at the optimal pH for the enzymes. The reactions were initiated by addition of the enzyme to a solution of the substrate in the absence or presence of various inhibitor concentrations. The mixture was incubated for 10–30 min at 37 °C or 55 °C (for amyloglucosidase) and the reaction was quenched by addition of 1 M Na2CO3. Reaction times were appropriate to obtain 10–20% conversion of the substrate in order to achieve linear rates. The absorbance of the resulting mixture was determined at 405 nm. Approximate value of Ki was determined from the slope of Dixon plots using a fixed concentration of substrate (around the Km value for the different glycosidases) and various concentrations of inhibitor. Full Ki determinations and enzyme inhibition mode were determined from the slope of Lineweaver–Burk plots and double reciprocal analysis. Representative examples of Dixon and Lineweaver–Burk plots are shown in the Supplementary materials.
# [2] = tested on: intracellular amastigotes of Leishmania donovani MHOM/ET/67/HU3 line; assay: Susceptibility of intracellular Leishmania amastigotes (luciferase assay); type: cell-based; details: L. donovani in THP-1 macrophages, 72 h at 37 °C, threshold 20 μM
# Protocol: The leishmanicidal activity of all the synthesized sp^2-iminosugar C-glycosides (1–12) was evaluated against intracellular amastigotes of Leishmania donovani MHOM/ET/67/HU3 line with luciferase gene integrated into the parasite genome. […] A strong influence of the nature of the lipid chain α-linked to the pseudoanomeric position of the bicyclic core in the sp^2-IGLs was inferred from the corresponding data. […] The longer-chain sp^2-IGLs 2 and 8 were over the 20 μM concentration threshold in this assay. In the sulfone series, the results evidenced some disparity between the ONJ and OGJ epimers.
# Macrophage-differentiated THP-1 cells, which are considered a suitable model for human macrophages, were plated at a density of 3 × 10^4 or 3 × 10^5 macrophages/well in 96-well white polystyrene microplates or 24-well tissue culture chamber slides, respectively, and were infected at a macrophage/parasite ratio of 1:10 with L. donovani promastigotes. Twenty-four hours after infection at 35 °C and 5% CO2, extracellular parasites were removed by washing with serum-free medium. Infected cell cultures were then incubated at different compound concentrations in RPMI 1640 medium plus 10% iFBS at 37 °C with 5% CO2 for 72 h. To determine the susceptibility of L. donovani LUC amastigotes, infected macrophages maintained in 96-well plates were lysed and then luminescence intensity was measured as indicative of the intracellular parasite growth, using the Luciferase Assay System Kit (Promega, Madison, Wis.) according to the instructions of the supplier. To determine the susceptibility of L. donovani HU3 amastigotes, infected macrophages maintained in 24-well plates were fixed for 30 min at 4 °C with 2.5% paraformaldehyde phosphate-buffered saline (PBS; 1.2 mM KH2PO4, 8.1 mM Na2HPO4, 130 mM NaCl, and 2.6 mM KCl adjusted to pH 7) and permeabilized with 0.1% Triton X-100 in PBS for 30 min. Intracellular parasites and macrophages were detected by nuclear staining with ProLong® Gold antifade reagent plus DAPI (Invitrogen). The percentage infection and mean number of amastigotes from infected macrophages were determined with 200 macrophages/well.
# [3] = tested on: human solid tumor cell lines A549, SW1573 (lung), HBL-100, T-47D (breast), HeLa (cervix), WiDr (colon); assay: Antiproliferative activity (SRB assay) against a panel of six human solid tumor cell lines; type: cell-based; details: for GI50 (concentration to achieve 50% growth inhibition): 48 h, tested 1 to 100 μM, only values below 100 μM significant; for GI50: read-out: GI50 (concentration to achieve 50% growth inhibition), 48 h, tested 1 to 100 μM, only values below 100 μM significant
# Protocol: The antiproliferative activity of all the sp^2-iminosugar C-glycosides (1–12) was evaluated against a panel of six representative human solid tumor cell lines including lung (A549 and SW1573), breast (HBL-100, T-47D), cervix (HeLa), and colon (WiDr).
# All reagents were used as purchased from commercial suppliers without further purification. The human solid tumor cell lines A549 (lung), HBL-100 (breast), HeLa (cervix), SW1573 (lung), T-47D (breast), and WiDr (colon) were used in this study. These cell lines were a kind gift from Prof. G. J. Peters (VU Medical Center, Amsterdam, The Netherlands).
# Cells were inoculated onto 96-well microtiter plates in a volume of 100 μL per well at densities of 2500 (A549, HBL-100, HeLa, and SW1573) and 5000 (T-47D and WiDr) cells per well, based on their doubling times. Compounds were initially dissolved in DMSO at 400 times the desired final maximum test concentration. Control cells were exposed to an equivalent concentration of DMSO (0.25% v/v, negative control). Each agent was tested in triplicate at different dilutions in the range of 1 to 100 μM. The drug treatment started on day 1 after plating. Drug incubation times were 48 h, after which cells were precipitated with 25 μL ice-cold TCA (50% w/v) and fixed for 60 min at 4 °C. Then the SRB assay was performed. The optical density (OD) of each well was measured at 530 nm, using BioTek’s PowerWave XS Absorbance Microplate Reader. Values were corrected for background OD from wells only containing medium. The antiproliferative activity for each compound, expressed as GI50 values, was calculated according to NCI formulas.
# THP-1 cells = assay: Cellular toxicity (MTT assay) in THP-1 cells; type: cell-based, human; details: for EC50: Homo sapiens, THP-1, MTT assay, 72 h at 37 °C; for SI (EC50 THP-1/EC50 parasite): Selectivity Index
# Protocol: Human myelomonocytic cell line THP-1 was grown at 37 °C and 5% CO2 in RPMI-1640 supplemented with 10% iFBS, 2 mM […], 100 U/mL penicillin, and 100 μg/mL streptomycin; 3 × 10^4 cells/well in 96-well plates were differentiated to macrophages with 20 ng/mL of PMA treatment for 48 h followed by 24 h of culture in fresh medium. Cellular toxicity of all compounds was determined using the colorimetric MTT-based assay after incubation at 37 °C for 72 h in the presence of increasing concentrations of compounds [71].
# β-Glcase (Bovine Liver) = biological target: T2, β-Glcase (Bovine Liver) (Bos taurus, UniProt F1MNT6); assay: Glycosidase inhibition (Ki), bovine liver β-glucosidase; type: biochemical; details: mean ± SD, three independent determinations; competitive inhibition
# T2 sequence (F1MNT6 1-469): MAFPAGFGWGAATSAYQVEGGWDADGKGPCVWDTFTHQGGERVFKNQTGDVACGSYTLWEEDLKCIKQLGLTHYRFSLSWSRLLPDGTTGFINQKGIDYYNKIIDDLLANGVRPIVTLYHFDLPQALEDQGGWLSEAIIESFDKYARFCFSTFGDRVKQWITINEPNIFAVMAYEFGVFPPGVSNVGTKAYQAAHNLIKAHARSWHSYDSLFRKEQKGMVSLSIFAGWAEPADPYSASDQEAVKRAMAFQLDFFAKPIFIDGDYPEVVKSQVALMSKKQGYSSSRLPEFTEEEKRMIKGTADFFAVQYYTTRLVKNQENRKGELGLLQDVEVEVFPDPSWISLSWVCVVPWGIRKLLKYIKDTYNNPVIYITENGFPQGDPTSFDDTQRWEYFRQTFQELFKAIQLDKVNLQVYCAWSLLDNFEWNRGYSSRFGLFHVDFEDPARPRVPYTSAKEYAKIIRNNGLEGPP
# Excerpt: as §1, §2
# [4] = tested on: human lung fibroblast MRC-5 cells; assay: Cellular toxicity (MTT assay) in MRC-5 cells; type: cell-based; details: for EC50: Homo sapiens, MRC5, MTT assay, 72 h at 37 °C; for SI (EC50 MRC-5/EC50 parasite): Selectivity Index
# A549, lung = tested on: A549, lung; design: method as in doi:10.1039/C5RA02627J; details: Figure 1; cited from earlier work
# [5] = tested on: different human tumor cell lines; design: method as in doi:10.1039/C5RA02627J; details: read-out: GI50 against different human tumor cell lines; cited from earlier work
# [6] = biological target: T3, green coffee bean α-galactosidase (Coffea arabica, UniProt Q42656); assay: Glycosidase inhibition, green coffee bean α-galactosidase; type: biochemical, green coffee beans; details: 1 mM concentration
# T3 construct: purchased
# Excerpt: as §1
# Inhibition constant (Ki) values were determined by spectrophotometrically measuring the residual hydrolytic activities of the glycosidases against the respective o- (for β-galactosidase from E. coli) or p-nitrophenyl α- or β-D-glycopyranoside (for other glycosidases) in the presence of the iminosugars. […] The absorbance of the resulting mixture was determined at 405 nm. Approximate value of Ki was determined from the slope of Dixon plots using a fixed concentration of substrate (around the Km value for the different glycosidases) and various concentrations of inhibitor. Full Ki determinations and enzyme inhibition mode were determined from the slope of Lineweaver–Burk plots and double reciprocal analysis. […]
# T1 sequence (P53341 whole entry): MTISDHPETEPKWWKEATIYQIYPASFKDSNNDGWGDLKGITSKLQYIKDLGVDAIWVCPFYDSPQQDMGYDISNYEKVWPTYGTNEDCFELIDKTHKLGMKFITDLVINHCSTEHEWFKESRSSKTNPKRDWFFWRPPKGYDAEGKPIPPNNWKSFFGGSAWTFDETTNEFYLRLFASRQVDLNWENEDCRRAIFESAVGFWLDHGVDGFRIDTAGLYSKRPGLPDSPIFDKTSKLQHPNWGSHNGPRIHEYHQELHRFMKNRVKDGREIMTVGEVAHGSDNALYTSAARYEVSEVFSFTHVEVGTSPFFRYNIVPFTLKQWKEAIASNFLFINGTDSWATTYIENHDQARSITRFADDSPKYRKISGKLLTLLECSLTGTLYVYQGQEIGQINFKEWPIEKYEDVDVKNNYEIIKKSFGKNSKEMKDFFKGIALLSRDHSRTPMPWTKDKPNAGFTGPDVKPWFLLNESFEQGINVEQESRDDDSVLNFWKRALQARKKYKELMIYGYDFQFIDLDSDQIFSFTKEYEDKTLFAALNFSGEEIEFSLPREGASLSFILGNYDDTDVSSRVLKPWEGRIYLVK
# T3 sequence (Q42656 16-378): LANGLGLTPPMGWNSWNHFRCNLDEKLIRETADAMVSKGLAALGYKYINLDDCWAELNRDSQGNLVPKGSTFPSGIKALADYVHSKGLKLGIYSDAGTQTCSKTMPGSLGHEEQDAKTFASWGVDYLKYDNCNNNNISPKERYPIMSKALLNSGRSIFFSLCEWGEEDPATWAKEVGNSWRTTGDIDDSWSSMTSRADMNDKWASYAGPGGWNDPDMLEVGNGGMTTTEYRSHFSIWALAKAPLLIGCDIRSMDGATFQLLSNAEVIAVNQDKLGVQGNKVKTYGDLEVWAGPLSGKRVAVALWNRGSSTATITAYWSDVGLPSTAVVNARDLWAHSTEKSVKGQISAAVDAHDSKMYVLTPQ
Compound,"Ki, α-Glcase (Yeast Maltase) (α-Glcase (Yeast Maltase))",EC50 [2],GI50 [3],EC50 (THP-1 cells),"Ki, β-Glcase (Bovine Liver) (β-Glcase (Bovine Liver))",EC50 [4],SI (EC50 MRC-5/EC50 parasite) [4],further results
CCCCCCCC[C@@H]1[C@H](O)[C@@H](O)[C@H](O)[C@H]2COC(=O)N12 [OC-ONJ],–,–,–,–,–,–,–,"IC50 (MDA-MB-231, breast): 44 µM; IC50 (MCF-7, breast): 26 µM"
CCCCCCCCS[C@@H]1[C@H](O)[C@@H](O)[C@H](O)[C@H]2COC(=O)N21 [OS-ONJ],–,–,–,–,–,–,–,"IC50 (MDA-MB-231, breast): 35 µM; IC50 (MCF-7, breast): 37 µM; EC50 [1]: 73.3 µM"
"CC(C)(C)OC(=O)NCCSCCC[C@@H]1[C@H](O)[C@@H](O)[C@@H](O)[C@H]2COC(=O)N12 [Compound 9, (1R)-1-[3-(N-tert-Butoxycarbonylaminoethylthio)propyl]-5N,6O-oxomethylidene-1-deoxygalactonojirimycin]",n.i.,13.4 ± 1.13 µM,> 100 µM,> 200 µM,n.i.,140 ± 17.3 µM,10.44,GI50 (concentration to achieve 50% growth inhibition) [3]: did not show any significant antiproliferative activity; also recorded: did not display significant antiproliferative activity
CCCCCCCCCCCCS[C@@H]1[C@H](O)[C@@H](O)[C@H](O)[C@H]2COC(=O)N21 [DS-ONJ],–,–,–,–,–,–,–,"GI50 (A549, lung): 16 µM; GI50 [5]: < 20 µM; Improvement of leishmanicidal potency relative to OS-ONJ [1]: up to 5 fold; EC50 [1]: 20.5 µM"
"C=CC[C@@H]1[C@H](O)[C@@H](O)[C@H](O)[C@H]2COC(=O)N12 [Compound 15, (1R)-1-Allyl-5N,6O-oxomethylidene-1-deoxynojirimycin]",–,–,–,–,n.i.,–,–,Ki (α-Glcase (Yeast Maltase)): 79 ± 8 µM
"CCCCCCCCSCCC[C@@H]1[C@H](O)[C@@H](O)[C@@H](O)[C@H]2COC(=O)N12 [Compound 7, (1R)-1-[3-(Octylthio)propyl]-5N,6O-oxomethylidene-1-deoxygalactonojirimycin]",n.i.,10.6 ± 1.51 µM,14 to 54 µM,128 ± 5.71 µM,n.i.,60.4 ± 2.8 µM,5.72,SI (EC50 THP-1/EC50 parasite) (THP-1 cells): 12.06
"CC(C)(C)OC(=O)NCCS(=O)(=O)CCC[C@@H]1[C@H](O)[C@@H](O)[C@@H](O)[C@H]2COC(=O)N12 [Compound 12, (1R)-1-[3-(N-tert-Butoxycarbonylaminoethylsulfonyl)propyl]-5N,6O-oxomethylidene-1-deoxygalactonojirimycin]",n.i.,> 20 µM,> 100 µM,> 200 µM,–,182 ± 14.9 µM,< 9.08,GI50 (concentration to achieve 50% growth inhibition) [3]: did not show any significant antiproliferative activity
"C=CC[C@@H]1[C@H](O)[C@@H](O)[C@@H](O)[C@H]2COC(=O)N12 [Compound 24, (1R)-1-Allyl-5N,6O-oxomethylidene-1-deoxygalactonojirimycin]",n.i.,–,–,–,n.i.,–,–,Inhibition of green coffee bean α-galactosidase [6]: Neither epimeric OGJ sp^2-IGLs 7–12 nor α-allyl OGJ glycoside 24 behaved as inhibitors
"CCCCCCCCCCCCSCCC[C@@H]1[C@H](O)[C@@H](O)[C@@H](O)[C@H]2COC(=O)N12 [Compound 8, (1R)-1-[3-(Dodecylthio)propyl]-5N,6O-oxomethylidene-1-deoxygalactonojirimycin]",did not inhibit and n.i.,> 20 µM,9.6 to 19 µM,68.3 ± 3.04 µM,–,32.1 ± 1.94 µM,< 1.60,SI (EC50 THP-1/EC50 parasite) (THP-1 cells): < 3.42
